Measurements as given in US20260248930A1, “PEPTIDE COMPOSITIONS TARGETING GLYPICAN-3 AND USES THEREOF” (PeptiDream Inc., priority 2023, published 2026).
*1 amine or outer side, *2 acyl side, *3 side chain or, on linkers, in order; H or OH if unused. Where a SMILES comes first, the peptide text is derived from it. Bridges are numbered along the chain shown (N, C = ends). [ ]: non-standard residue; d: D form. The star is where a group is joined. ξ: configuration not given here. MeDapCOpipzaa = 3-(4-(carboxymethyl)piperazine-1-carboxamido)-2-(methylamino)propanoic acid, CN([C@@H](CNC(=O)N1CCN(CC(=O)[*:3])CC1)C(=O)[*:2])[*:1]; F4aao = (S)-2-amino-3-(4-(carboxymethoxy)phenyl)propanoic acid, O=C([C@H](Cc1ccc(OCC(=O)[*:3])cc1)N[*:1])[*:2]; MeHseMe = 4-methoxy-2-(methylamino)butanoic acid, COCC[C@@H](C(=O)[*:2])N(C)[*:1]; Phe(4-(1-Me-pyrazol-4-yl)) = Cn1cc(-c2ccc(C[C@H](N)C(=O)O)cc2)cn1; Biotin‑PEG12c = biotin-PEG12c group on the lysine side chain; TMe = O-methyl threonine, CO[C@H](C)[C@H](N[*:1])C(=O)[*:2]; NMeAla(isoquinolin-7-yl) = CN[C@@H](Cc1ccc2ccncc2c1)C(=O)O; 3Pal(6-Ph) = N[C@@H](Cc1ccc(-c2ccccc2)nc1)C(=O)O; Biotin = O=C1N[C@H]2[C@H](CS[C@H]2CCCCC(=O)*)N1; PEG10 = NCCOCCOCCOCCOCCOCCOCCOCCOCCOCCOCCC(=O)O; Phe(4-COOH) = N[C@@H](Cc1ccc(C(=O)O)cc1)C(=O)O; NMe2Nal = CN[C@@H](Cc1ccc2ccccc2c1)C(=O)O; AEF = NCCOc1ccc(C[C@H](N)C(=O)O)cc1; NMeI = CC[C@H](C)[C@H](NC)C(=O)O; NMeQ = CN[C@@H](CCC(N)=O)C(=O)O; NMeK = CN[C@@H](CCCCN)C(=O)O; NMeC = CN[C@@H](CS)C(=O)O; ξNMeC = CNC(CS)C(=O)O

Experiments:
human Glypican3 = molecular target: T1, human Glypican3 (Homo sapiens, UniProt P51654); assay: SPR binding to immobilized human Glypican3, Method B-1 (CM3 chip, amine coupling); conditions: SPR method B-1
T1 construct: purchased R&D systems 2119-GP
T1 sequence (P51654 25-554): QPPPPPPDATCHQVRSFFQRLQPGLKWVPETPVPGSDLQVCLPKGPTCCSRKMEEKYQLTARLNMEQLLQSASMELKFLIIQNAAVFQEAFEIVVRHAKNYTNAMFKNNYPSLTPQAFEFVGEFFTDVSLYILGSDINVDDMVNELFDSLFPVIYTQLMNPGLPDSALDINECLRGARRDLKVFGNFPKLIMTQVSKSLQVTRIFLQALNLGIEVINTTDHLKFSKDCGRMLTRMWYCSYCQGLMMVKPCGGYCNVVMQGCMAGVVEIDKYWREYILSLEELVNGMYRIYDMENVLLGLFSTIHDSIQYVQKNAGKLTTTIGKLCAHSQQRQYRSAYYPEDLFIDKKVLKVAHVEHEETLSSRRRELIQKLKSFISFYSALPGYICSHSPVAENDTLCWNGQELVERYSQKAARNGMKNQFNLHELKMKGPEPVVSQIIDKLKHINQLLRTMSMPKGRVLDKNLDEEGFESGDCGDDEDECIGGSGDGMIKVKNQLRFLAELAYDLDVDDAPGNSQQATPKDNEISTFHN
Protocol: Macrocyclic peptides in this invention were tested for binding to Glypican-3 protein by SPR.
A CM3 sensor chip (Cytiva) was inserted into a Biacore T200 (Cytiva), primed three times with a running buffer: HBS-P+, pH 7.4 (Cytiva), and equilibrated at a flow rate of 30 μL/min. Ligand immobilization was performed at a flow rate of 10 μL/min. 50 μL each of 60 mM EDC solution (Cytiva) and 650 mM NHS solution (Cytiva) were mixed, and then reacted at a flow rate of 10 μL/min for 420 seconds. 150 μL of 0.2 μM human Glypican3 (R&D systems, catalog number: 2119-GP) solution which was prepared by diluting with 10 mM acetic acid solution (pH 5.0), was reacted at a flow rate of 10 μL/min for 420 seconds, and Glypican3 was immobilized on the CM3 sensor chip. After immobilization, 1.0 M ethanolamine aqueous solution (Cytiva) was allowed to react for 420 seconds at a flow rate of 10 μL/min for capping. A peptide lysate prepared to 10 mM in DMSO solution was diluted with running buffer to a final concentration of 10 μM peptide lysate. After that, 5 serial dilution series (100 nM, 50 nM, 25 nM, 10 nM, 5 nM) of peptide solutions were prepared. Using the above samples, peptide kinetics for Glypican3 was obtained by SPR measurement. […]
The obtained data by Method B-1, Method B-2, Method B-3, and Method B-4 were analyzed by follow. […]

[1] = tested on: HepG2 cells (glypican 3 expressed on the cell surface); assay: Flow cytometry, biotinylated peptides followed by SAPE, HepG2; assay type: cell-based, human; conditions: biotinylated peptide at 100 nM followed by SAPE (1:250), on ice; compared with SK-Hep1 negative control; FIG. 2
Protocol: (§1) Macrocyclic peptide-conjugates in this invention were tested in cells expressing glypican 3 and analyzed by flow cytometry.
(§2) HepG2 (human hepatocellular carcinoma) and SK-HEP-1 (human hepatic adenocarcinoma) cell lines were purchased from the American Type Culture Collection (ATCC; Manassas, VA). Huh-7 (human hepatoblastoma) cell line was purchased from the Japanese Collection of Research Bioresources Cell Bank (JCRB Cell Bank, Osaka, Japan). HepG2 and SK-HEP-1 were grown in EMEM (FUJIFILM Wako Pure Chemical Corporation, 055-08975) with 10% fetal bovine serum (FBS; Thermo Fisher Scientific, 10270106) and 0.1% gentamicin (NACALAI TESQUE, 11980-14). Huh-7 was grown in DMEM (Thermo Fisher Scientific, 10567014) with 10% FBS and 0.1% gentamicin.
(§3) HepG2, SK-HEP-1 and Huh-7 cells were collected from the culture dish and stained with biotinylated peptides at 100 nM followed by Streptavidin, R-Phycoerythrin Conjugate (SAPE; Thermo Fisher Scientific, S866) (1:250). Cells were washed with phosphate-buffered saline (PBS; FUJIFILM Wako Pure Chemical Corporation, 043-29791) containing 0.5% FBS after addition of peptides or SAPE. All staining procedures were performed on ice. Samples were measured using CytoFLEX S (Beckman Coulter) and CytExpert ver2.4 software. All data were analyzed using FlowJo™ (BD Bioscience). […]

[2] = tested on: Huh-7 cells (glypican 3 expressed on the cell surface); assay: Flow cytometry, biotinylated peptides followed by SAPE, Huh-7; assay type: cell-based, human; conditions: biotinylated peptide at 100 nM followed by SAPE (1:250), on ice; compared with SK-Hep1 negative control; FIG. 3
Protocol: as §1, §2, §3

Human Glypican3-Fc = Human Glypican3-Fc (Homo sapiens, UniProt P51654); assay: SPR binding to human Glypican3-Fc captured on Protein A chip, Method B-3 (5 concentrations); conditions: SPR method B-3
Protocol: (§4) A Protein A sensor chip (Cytiva) was inserted into a Biacore T200 (Cytiva), priming was performed three times with a running buffer: HBS-P+, pH 7.4 (Cytiva), and equilibration was carried out at a flow rate of 30 μL/min. Glypican3-Fc was allowed to react for 60 seconds at a flow rate of 10 μL/min. After capturing human Glypican3-Fc, a peptide solution prepared to 10 mM in DMSO solution was diluted with a running buffer to a final concentration of 10 μM. […] Using the above samples, peptide kinetics for Glypican3 was obtained by SPR measurement. Kinetics evaluation of Glypican3 was performed by SPR measurements at a flow rate of 10 μL/min, setting the association time to 120 seconds and the disassociation time to 600 seconds.
(§5) The obtained data by Method B-1, Method B-2, Method B-3, and Method B-4 were analyzed by follow. Single Cycle Kinetics was used as the kinetics evaluation model, and curve fitting was performed using Biacore T200 Evaluation Software Version 3.0 (Cytiva).

[3] = molecular target: Human Glypican3-Fc (ACRO Biosystems, GP3-H5258) (human) (UniProt P51654); assay: SPR Biacore T200, Method B-3: Glypican3-Fc captured on Protein A chip, single cycle kinetics
Sequence of Human Glypican3-Fc (ACRO Biosystems, GP3-H5258) (human) (P51654 25-559 limits assumed): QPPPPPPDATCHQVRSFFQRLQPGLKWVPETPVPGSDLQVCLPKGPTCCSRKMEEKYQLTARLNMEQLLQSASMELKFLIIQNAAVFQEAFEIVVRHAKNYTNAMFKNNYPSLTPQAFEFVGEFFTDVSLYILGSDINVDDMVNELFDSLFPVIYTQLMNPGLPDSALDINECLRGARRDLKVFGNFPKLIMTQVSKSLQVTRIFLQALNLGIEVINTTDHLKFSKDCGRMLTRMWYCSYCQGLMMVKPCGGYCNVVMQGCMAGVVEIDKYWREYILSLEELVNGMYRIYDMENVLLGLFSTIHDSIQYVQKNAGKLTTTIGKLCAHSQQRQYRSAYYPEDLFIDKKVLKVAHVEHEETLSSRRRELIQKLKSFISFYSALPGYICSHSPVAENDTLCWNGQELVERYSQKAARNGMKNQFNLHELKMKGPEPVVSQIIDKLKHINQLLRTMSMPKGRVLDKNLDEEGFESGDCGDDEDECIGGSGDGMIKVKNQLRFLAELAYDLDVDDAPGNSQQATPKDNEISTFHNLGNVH

[4] = molecular target: T2, Human Glypican3-Fc (ACRO Biosystems, GP3-H5258) (human, UniProt P51654 25-559); assay: as above
T2 construct: Bought Fc fusion, captured by anti-human IgG (Fc) antibody (Method B-2) or on a Protein A chip (Methods B-3, B-4); Supplier and catalogue number are printed only in Method B-2; B-3 and B-4 say only Glypican3-Fc / human Glypican3-Fc; not shown: Fc part of the bought fusion protein
T2 sequence (P51654 25-559 limits assumed): as above
Protocol: as §4, §5

`CC[C@H](C)[C@@H]1NC(=O)[C@H]([C@@H](C)OC)NC(=O)[C@H](Cc2ccc(C(=O)O)cc2)NC(=O)[C@H](CCC(N)=O)N(C)C(=O)[C@H](CC(=O)O)NC(=O)[C@H](CCC(N)=O)N(C)C(=O)[C@H](CCC(N)=O)N(C)C(=O)CSC[C@@H](C(N)=O)N(C)C(=O)[C@H](Cc2ccc(-c3cnn(C)c3)cc2)NC(=O)CNC(=O)[C@H](Cc2ccc3ccccc3c2)N(C)C(=O)[C@H](Cc2ccc(C(=O)O)cc2)NC1=O` [compound 18] ({CH2CO}-[NMeQ][NMeQ]D[NMeQ][Phe(4-COOH)]T(Me)I[Phe(4-COOH)][NMe2Nal]G[Phe(4-(1-Me-pyrazol-4-yl))][NMeC]-NH2; thioether N-12) showed a Kd (human Glypican3) of 1.8 nM.

With `CC[C@H](C)[C@@H]1NC(=O)[C@H](Cc2ccc(C(=O)O)cc2)NC(=O)[C@H](CCC(N)=O)N(C)C(=O)[C@H](CC(=O)O)NC(=O)[C@H]([C@@H](C)CC)N(C)C(=O)[C@H](CCCCNC(C)=O)N(C)C(=O)CSCC(C(=O)NCC(=O)NCCOCCOCCOCCOCCOCCOCCOCCOCCOCCOCCC(=O)N[C@@H](CCCCNC(=O)CCCC[C@@H]2SC[C@@H]3NC(=O)N[C@@H]32)C(N)=O)N(C)C(=O)[C@H](Cc2ccc(-c3ccccc3)nc2)NC(=O)CNC(=O)[C@H](Cc2ccc3ccncc3c2)N(C)C(=O)[C@H](Cc2ccc(O)cc2)NC(=O)[C@H]([C@@H](C)CC)NC1=O` (some centres unmarked) [PLB-60] ({CH2CO}-[NMeK](Ac)[NMeI]D[NMeQ][Phe(4-COOH)]IIY[NMeAla(isoquinolin-7-yl)]G[3Pal(6-Ph)][ξNMeC]G[PEG10]K(Biotin)-NH2; thioether N-12) the “comparative staining of HepG2 by flow cytometry” value [1] was “specific binding to both glypican expressing cells and SAPE” and the “comparative staining of Huh-7 by flow cytometry” value [2] was “specific binding to both glypican expressing cells and SAPE”.

Work on `CC[N+]1=C(/C=C/C=C/C=C2/N(CCCCCC(=O)NCCCC[C@H](NC(=O)CCOCCOCCOCCOCCOCCOCCOCCOCCOCCOCCNC(=O)CNC(C)=O)C(N)=O)c3ccc(S(=O)(=O)O)cc3C2(C)C)C(C)(C)c2cc(S(=O)(=O)[O-])ccc21` [C-M-64, 2-[(1E,3E)-5-[(2E)-1-(5-{[(5)-5-carbamoyl-5-[1-(2-acetamidoacetamido)-3,6,9,12,15,18,21,24,27,30-decaoxatritriacontan-33-amido]pentyl]carbamoyl}pentyl)-3,3-dimethyl-5-sulfo-2,3-dihydro-1H-indol-2-ylidene]penta-1,3-dien-1-yl]-1-ethyl-3,3-dimethyl-3H-indol-1-ium-5-sulfonate, reference compound] yielded a Kd (Human Glypican3-Fc) of under 1 nM.

`CC[C@H](C)[C@@H]1NC(=O)[C@H]([C@@H](C)OC)NC(=O)[C@H](Cc2ccc(C(=O)O)cc2)NC(=O)[C@H](CNC(=O)N2CCN(CC(=O)O)CC2)N(C)C(=O)[C@H](CC(=O)O)NC(=O)[C@H](CCOC)N(C)C(=O)[C@H](CCCCNC(=O)N2CCN(CC(=O)O)CC2)N(C)C(=O)CSC[C@@H](C(N)=O)N(C)C(=O)[C@H](Cc2ccc(-c3ccccc3)nc2)NC(=O)CNC(=O)[C@H](Cc2ccc3ccncc3c2)N(C)C(=O)[C@H](Cc2ccc(OCCN)cc2)NC1=O` [compound 55] was tested, and the Kd (Human Glypican3-Fc) was 1.8 nM.

B1: macrocyclic peptide of SEQ ID NO: 50 (peptide)
peptide: {CH2CO}-[MeDapCOpipzaa][MeHseMe]D[MeDapCOpipzaa][Phe(4-COOH)][TMe]I[AEF][NMe2Nal]G[3Pal(6-Ph)][NMeC]-NH2
modifications: thioether N-12
With B1 the Kd [3] was 0.3 nM.

B2: macrocyclic peptide of SEQ ID NO: 54 (peptide)
peptide: {CH2CO}-[MeDapCOpipzaa][MeHseMe]D[MeDapCOpipzaa][Phe(4-COOH)][TMe]I[AEF][NMeAla(isoquinolin-7-yl)]G[3Pal(6-Ph)][NMeC]-NH2
modifications: thioether N-12
B2 showed a Kd [3] of 1 nM.

B3: macrocyclic peptide-biotin conjugate PLB-64 (SEQ ID NO: 76) (peptide)
peptide: {CH2CO}-[NMeK](Biotin‑PEG12c)[NMeI]D[NMeQ][Phe(4-COOH)]II[F4aao][NMeAla(isoquinolin-7-yl)]G[3Pal(6-Ph)][NMeC]-NH2
modifications: thioether N-12
Molecule B3 has a Kd [4] of 1.04 nM.
